Laboratory results reported in US12139477B2, “Compounds, salts thereof and methods for treatment of diseases” (ACADIA PHARMACEUTICALS INC., priority 2017, dated 2024).

Molecular target: 5HT2A (Homo sapiens, UniProt P28223)
Assay: Receptor Selection and Amplification (R-SAT) functional assay
Format: cell-based
Design: expressed in transfected cells; host or cells: NIH3T3 cells, pSI mammalian expression vector
Details: NIH3T3 cells; Ki from IC50 by Cheng and Prussoff; read-out: 5-HT2a (pKi) (R-SAT) (converted)
Description: Receptor Selection and Amplification (R-SAT) Assays. […] The IC50 determined in the RSAT assay was converted into a Ki value using the method of Cheng and Prussoff, Biochem Pharmacol., 1973 Dec. 1; 22(23):3099-108. pKi is the negative of the log(Ki).

Sequence of 5HT2A (P28223 whole entry): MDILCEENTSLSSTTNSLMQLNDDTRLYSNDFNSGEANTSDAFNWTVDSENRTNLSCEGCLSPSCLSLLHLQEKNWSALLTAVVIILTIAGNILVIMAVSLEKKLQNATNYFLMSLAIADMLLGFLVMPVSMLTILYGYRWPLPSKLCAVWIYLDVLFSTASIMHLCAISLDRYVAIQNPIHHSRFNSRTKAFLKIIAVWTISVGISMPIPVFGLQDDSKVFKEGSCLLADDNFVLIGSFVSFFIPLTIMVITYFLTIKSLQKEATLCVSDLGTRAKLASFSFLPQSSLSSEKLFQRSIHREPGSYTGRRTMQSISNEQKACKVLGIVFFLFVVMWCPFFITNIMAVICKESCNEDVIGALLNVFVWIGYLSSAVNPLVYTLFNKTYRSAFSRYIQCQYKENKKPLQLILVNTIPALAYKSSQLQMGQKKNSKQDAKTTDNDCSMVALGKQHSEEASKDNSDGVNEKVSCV

Point of comparison: `COc1cc(CNC(=O)N(Cc2ccc(F)cc2F)C2CCN(C)CC2)ccc1F` [Example 146, 1-[(2,4-difluorophenyl)methyl]-3-[(4-fluoro-3-methoxyphenyl)methyl]-1-(1-methylpiperidin-4-yl)urea; Trifluoroacetic Acid], Ki 5.01 nM. Against it:
- COc1cc(OC(C)C)ccc1CNC(=O)N(Cc1ccc(F)cc1F)C1CCN(C)CC1 [Example 74, 1-[(2,4-difluorophenyl)methyl]-3-{[2-methoxy-4-(propan-2-yloxy)phenyl]methyl}-1-(1-methylpiperidin-4-yl)urea] — 7.9-fold higher, 39.8 nM
- COc1cc(F)c(F)cc1CN(C(=O)NCc1ccc(OC(C)C)cc1)C1CCNCC1 [Example 83, 3-[(4,5-difluoro-2-methoxyphenyl)methyl]-3-(piperidin-4-yl)-1-{[4-(propan-2-yloxy)phenyl]methyl}urea; Trifluoroacetic Acid] — 32-fold higher, 158 nM
- CC(C)COc1ccc(CNC(=O)N(Cc2ccc(F)cc2OC(F)F)C2CCN(C)CC2)cc1 [Example 101, 1-{[2-(difluoromethoxy)-4-fluorophenyl]methyl}-1-(1-methylpiperidin-4-yl)-3-{[4-(2-methylpropoxy)phenyl]methyl}urea; Trifluoroacetic Acid] — 16-fold higher, 79.4 nM
- CC(C)COc1ccc(CNC(=O)N(Cc2cc(F)c(F)cc2F)C2CCN(C)CC2)cc1 [Example 70] — 10-fold higher, 50.1 nM
- CN1CCC(N(Cc2ccc(F)cc2F)C(=O)NCc2ccc([N+](=O)[O-])cc2F)CC1 [Example 97, 1-[(2,4-difluorophenyl)methyl]-3-[(2-fluoro-4-nitrophenyl)methyl]-1-(1-methylpiperidin-4-yl)urea; Trifluoroacetic Acid] — 7.9-fold higher, 39.8 nM
- CN1CCC(N(Cc2ccc(F)cc2F)C(=O)NCc2ccc3ncoc3c2)CC1 [Example 29] — 2-fold higher, 10 nM
- CC(C)COc1ccc(CNC(=O)N(Cc2ccc(C(F)(F)F)cc2O)C2CCN(C)CC2)cc1 [Example 90, 1-{[2-hydroxy-4-(trifluoromethyl)phenyl]methyl}-1-(1-methylpiperidin-4-yl)-3-{[4-(2-methylpropoxy)phenyl]methyl}urea; Trifluoroacetic Acid] — 2.5-fold higher, 12.6 nM
- O=C(O)C(F)(F)F.[2H]C([2H])([2H])N1CCC(N(Cc2ccc(F)cc2F)C(=O)NCc2ccc(OC(C)C)cc2)CC1 [Example 131, 1-[(2,4-difluorophenyl)methyl]-1-[1-(^2H3)methylpiperidin-4-yl]-3-{[4-(propan-2-yloxy)phenyl]methyl}urea; Trifluoroacetic Acid] — 7.9-fold lower, 0.631 nM
- COc1ccc(CNC(=O)N(Cc2ccc(F)cc2F)C2CCN(C)CC2)c(OC)c1 [Example 50] — 20-fold higher, 100 nM
- COc1ccc(CNC(=O)N(Cc2ccc(F)cc2)[C@H]2CCN(C)C[C@H]2F)c(OC)c1 (racemic) [Example 1, 1-[(2,4-dimethoxyphenyl)methyl]-3-[(3R,4S)-3-fluoro-1-methylpiperidin-4-yl]-3-[(4-fluorophenyl)methyl]urea; Trifluoroacetic Acid (1a) and 1-[(2,4-dimethoxyphenyl)methyl]-3-[(3S,4R)-3-fluoro-1-methylpiperidin-4-yl]-3-[(4-fluorophenyl)methyl]urea; Trifluoroacetic Acid (1b)] — 5-fold higher, 25.1 nM
- CN1CCC(N(Cc2ccc(F)cc2F)C(=O)NCc2ccc3c(c2)N(C)CCO3)CC1 [Example 32] — 1.6-fold higher, 7.94 nM
- CC(C)COc1ccc(CNC(=O)N(Cc2cccc(F)c2F)C2CCN(C)CC2)cc1 [Example 129, 1-[(2,3-difluorophenyl)methyl]-1-(1-methylpiperidin-4-yl)-3-{[4-(2-methylpropoxy)phenyl]methyl}urea; Trifluoroacetic Acid] — 10-fold higher, 50.1 nM
- CN1CCC(N(Cc2ccc(F)cc2F)C(=O)NCc2ccc(O)cc2F)CC1 [Example 119, 1-[(2,4-difluorophenyl)methyl]-3-[(2-fluoro-4-hydroxyphenyl)methyl]-1-(1-methylpiperidin-4-yl)urea] — 13-fold higher, 63.1 nM
- CN1CCC(N(Cc2ccc(F)cc2)C(=O)NCc2ccc(F)cc2F)CC1 [Example 100, 3-[(2,4-difluorophenyl)methyl]-1-[(4-fluorophenyl)methyl]-1-(1-methylpiperidin-4-yl)urea; Trifluoroacetic Acid] — 4-fold higher, 20 nM
- COc1c(F)ccc(CNC(=O)N(Cc2ccc(F)cc2F)C2CCN(C)CC2)c1F [Example 54] — 1.6-fold higher, 7.94 nM
- COc1cc(F)c(CNC(=O)N(Cc2ccc(F)cc2F)C2CCN(C)CC2)c(F)c1 [Example 150, 1-[(2,6-difluoro-4-methoxyphenyl)methyl]-3-[(2,4-difluorophenyl)methyl]-3-(1-methylpiperidin-4-yl)urea; Trifluoroacetic Acid] — the same, 5.01 nM
- CC(C)Oc1ccc(CNC(=O)N(Cc2ccc(F)cc2F)[C@H]2C[C@H]3CC[C@@H](C2)N3C)cc1 [Example 84, 3-[(2,4-difluorophenyl)methyl]-3-[(1R,3R,5S)-8-methyl-8-azabicyclo[3.2.1]octan-3-yl]-1-{[4-(propan-2-yloxy)phenyl]methyl}urea; Trifluoroacetic Acid] — 10-fold higher, 50.1 nM
- CN1CCC(N(Cc2ccc(F)cc2F)C(=O)NCc2ccc3[nH]cnc3c2)CC1 [Example 77, 3-[(1H-1,3-benzodiazol-5-yl)methyl]-1-[(2,4-difluorophenyl)methyl]-1-(1-methylpiperidin-4-yl)urea; Trifluoroacetic Acid] — 16-fold higher, 79.4 nM
- CC(C)COc1ccc(CNC(=O)N(Cc2cc(F)ccc2F)C2CCN(C)CC2)cc1 [Example 63] — 16-fold higher, 79.4 nM
- COc1ccc(CN(C(=O)NCc2ccc(OCC(C)C)cc2)C2CCN(C)CC2)c(OC)c1 [Example 2, 3-[(2,4-dimethoxyphenyl)methyl]-3-(1-methylpiperidin-4-yl)-1-{[4-(2-methylpropoxy)phenyl]methyl}urea] — 630-fold higher, 3160 nM
- Cc1ccc(F)c(CN(C(=O)NCc2ccc(OC(C)C)cc2)C2CCN(C)CC2)c1F [Example 112, 1-[(2,6-difluoro-3-methylphenyl)methyl]-1-(1-methylpiperidin-4-yl)-3-{[4-(propan-2-yloxy)phenyl]methyl}urea; Trifluoroacetic Acid] — 7.9-fold higher, 39.8 nM
- CN1CCC(N(Cc2ccc(F)cc2F)C(=O)NCc2ccc3c(c2)OC(C)(C)C3)CC1 [Example 59] — 3.2-fold higher, 15.8 nM
- CC(C)COc1ccc(CNC(=O)N(Cc2ccc(F)cc2N(C)C)C2CCN(C)CC2)cc1 [Example 69] — 130-fold higher, 631 nM
- Cc1cc(OC(C)C)ccc1CNC(=O)N(Cc1ccc(F)cc1F)C1CCN(C)CC1 [Example 116, 1-[(2,4-difluorophenyl)methyl]-3-{[2-methyl-4-(propan-2-yloxy)phenyl]methyl}-1-(1-methylpiperidin-4-yl)urea; Hemitartrate] — 13-fold higher, 63.1 nM
- CN1CC[C@@H](N(Cc2ccc(F)cc2F)C(=O)NCc2ccc(OC3CC3)cc2)[C@@H](F)C1 (racemic) [Example 117, 1-[(4-cyclopropoxyphenyl)methyl]-3-[(2,4-difluorophenyl)methyl]-3-[(3S,4R)-3-fluoro-1-methylpiperidin-4-yl]urea and 1-[(4-cyclopropoxyphenyl)methyl]-3-[(2,4-difluorophenyl)methyl]-3-[(3R,4S)-3-fluoro-1-methylpiperidin-4-yl]urea] — 13-fold lower, 0.398 nM
- CC(C)C(C)(O)COc1ccc(CNC(=O)N(Cc2ccc(F)cc2F)C2CCN(C)CC2)cc1 (stereo not drawn) [Example 87, 1-[(2,4-difluorophenyl)methyl]-3-{[4-(2-hydroxy-2,3-dimethylbutoxy)phenyl]methyl}-1-(1-methylpiperidin-4-yl)urea; Trifluoroacetic Acid] — 2-fold higher, 10 nM
